The record followed here is paper PMC6154995, “Heme-dependent Inactivation of 5-Aminolevulinate Synthase from Caulobacter crescentus” (Scientific Reports, 2018).

What all share (format): binding
For experiment [1], the target named is T1, 5-aminolevulinate synthase (cALAS) (Caulobacter vibrioides, UniProt Q9A8J8). The experiment can be described thus: UV/Vis and CD at […] nm; HPLC of PLP from purified enzyme. The arrangement: gene CC_1355; recombinant full-length cALAS, C-terminal His6-tag.
Experiment [2] addresses T2, 5-aminolevulinate synthase (cALAS) (Caulobacter vibrioides, UniProt Q9A8J8, D214A).
T2 construct: gene CC_1355; D214A apo-cALAS
The experiment can be described thus: UV/Vis titration of apoenzyme with PLP.

Experiment [3] has as its target T3, 5-aminolevulinate synthase (cALAS) (Caulobacter vibrioides, UniProt Q9A8J8, C398A/H340A).
T3 construct: gene CC_1355; recombinant cALAS H340A/C398A, PLP form
The experiment can be described thus: apparent Kd from spectrophotometric titration. The note with it: read-out: KdGly,app /.

Experiment [4] deals with T1, 5-aminolevulinate synthase (cALAS). The experiment can be described thus: UV/Vis spectrophotometric titration. The arrangement: gene CC_1355; recombinant full-length cALAS, PLP form.
Experiment [5] addresses T4, 5-aminolevulinate synthase (cALAS) (Caulobacter vibrioides, UniProt Q9A8J8, C398A).
T4 construct: gene CC_1355; recombinant cALAS C398A, PLP form
The experiment can be described thus: apparent Kd from spectrophotometric titration. The note with it: read-out: KdGly,app /.

For experiment [6], the target named is T5, 5-aminolevulinate synthase (cALAS) (Caulobacter vibrioides, UniProt Q9A8J8, H340A).
T5 construct: gene CC_1355; recombinant cALAS H340A, PLP form
T5 sequence (Q9A8J8 1-408 H340A): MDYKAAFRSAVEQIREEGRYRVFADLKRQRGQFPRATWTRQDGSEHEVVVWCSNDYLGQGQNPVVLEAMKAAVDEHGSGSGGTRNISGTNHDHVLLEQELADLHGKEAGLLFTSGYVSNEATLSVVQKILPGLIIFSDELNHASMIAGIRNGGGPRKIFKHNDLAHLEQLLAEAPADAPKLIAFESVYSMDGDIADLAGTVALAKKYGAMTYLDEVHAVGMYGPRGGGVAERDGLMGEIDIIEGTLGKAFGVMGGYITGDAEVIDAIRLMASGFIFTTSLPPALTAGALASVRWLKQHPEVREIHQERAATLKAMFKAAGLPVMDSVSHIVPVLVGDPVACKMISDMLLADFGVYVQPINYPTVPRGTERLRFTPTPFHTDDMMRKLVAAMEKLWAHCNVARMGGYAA
The experiment can be described thus: apparent Kd from spectrophotometric titration. The conditions noted are these: read-out: KdGly,app /.

Each structure is given as a SMILES string.

T1 sequence (Q9A8J8 1-408): as the sequence (Q9A8J8 1-408 H340A) above, with A340H counted along it
T3 sequence (Q9A8J8 1-408 H340A/C398A): as the sequence (Q9A8J8 1-408 H340A) above, with C398A counted along it
T4 sequence (Q9A8J8 1-408 C398A): as the sequence (Q9A8J8 1-408 H340A) above, with A340H, C398A counted along it
T2 sequence (Q9A8J8 1-408 D214A): as the sequence (Q9A8J8 1-408 H340A) above, with D214A, A340H counted along it

On to `Cc1ncc(COP(=O)(O)O)c(C=O)c1O` [pyridoxal 5′-phosphate], for which the “UV/Vis and CD at 424 nm; HPLC of PLP from purified enzyme” value in experiment [1] is recorded as “a peak for PLP was observed for the PLP form of cALAS”. In addition, in experiment [2], the “UV/Vis titration of apoenzyme with PLP” value is “upon PLP titration, cALAS displayed spectral changes supporting internal Schiff-base formation between PLP and Lys248”.
On to `NCC(=O)O` [glycine], for which the Kd was determined as 6.46 ± 1.5 mM in experiment [3], 10.6 ± 1.35 mM in experiment [4], 13.6 ± 3.1 mM in experiment [5] and 11.5 ± 1.17 mM in experiment [6].
